Experimental data as given in patent US10610517B2, “Compositions and methods for treating neoplastic diseases” (Celgene International II Sàrl, priority 2004, dated 2020).

Columns and labels:
[1] = molecular target: proteasome β-5, β-2, β-1 subunits in MM.1S MM cells (Homo sapiens, UniProt P28072+P28074+Q99436); test: Competition experiment with AdaY(125I)Ahx3L3VS in MM.1S cells; assay type: cell-based; settings: 7 nM
Method: Determination of whether the compound of formula II (X=Cl) affects the proteasome activity in multiple myeloma cells in vitro was made using a competition experiment with AdaY^125Iahx3L3VS. In this assay, sites that are not targeted by the compound of formula II (X=Cl) are labeled by AdaY(^125I)Ahx3L3VS and visualized by autoradiography, while sites that are targeted by the compound of formula II (X=Cl) can not be seen on the autoradiogram. […] 60 μg of protein extracts was incubated for 2 h with the iodinated proteasome inhibitor AdaY^125Iahx3L3VS at 37° C. Proteins were then denatured by boiling in reducing sample buffer and separated on a 12.5% SDS-PAGE gel, followed by autoradiography.

[2] = test system: purified (CD138-positive) patient MM cells; test: DNA fragmentation apoptosis assay on purified patient MM cells
[3] = molecular target: T1, human erythrocyte-derived 20S proteasome (Homo sapiens, UniProt P28072+P28074+Q99436); test: In vitro 20S proteasome activity assay; assay type: biochemical; settings: Suc-LLVY-AMC, Z-LLE-AMC, Boc-LRR-AMC substrates; FIG. 1
T1 construct: Purified human erythrocyte-derived 20S proteasome were obtained from Biomol; purchased Biomol, Plymouth Meeting, Pa; host or cells: purified from human erythrocytes
Method: The chymotrypsin-like activity of the 20S proteasome was measured as described in Stein, R. L., Melandri, F. & Dick, L. (1996) Biochemistry 35, 3899-908 and Lightcap, E. S., McCormack, T. A., Pien, C. […] Purified human erythrocyte-derived 20S proteasome were obtained from Biomol, Plymouth Meeting, Pa. The chymotrypsin-like, caspase-like and trypsin-like activity activities of the 20S proteasome were determined using Suc-LLVY-AMC, Z-LLE-AMC (Boston Biochem, Cambridge, Mass.) and Boc-LRR-AMC (Bachem Bioscience, King of Prussia, Pa.) as peptide substrates, respectively. Fluorescence of the cleaved peptide substrate was measured using a Fluoroskan Ascent 96-well microplate reader (Thermo Electron, Waltham, Mass.). The EC50 values were calculated by Prism (GraphPad Software) using a sigmoidal dose-response, variable slope model. The EC50 values were defined as the drug concentration at which 50% of the maximal relative fluorescence is inhibited.

[4] = test system: Lymphocytes from five healthy donors; test: MTT cytotoxicity on normal lymphocytes
Description: Bortezomib therapy is associated with toxicity in patients. […] Results are the mean±SD of three independent experiments.

[5] = test system: MM.1S, MM.1R, RPMI-8226, Dox-40, OPM2 and U266 cells; test: MTT cell viability of MM cell lines; assay type: cell-based, human; settings: 24 h, range over all six cell lines; FIG. 5A
Description: Results are mean±S.D from three independent experiments (P<0.005; n=3 for all Cell lines).

[6] = test system: Bax; test: Immunoblot of Bax in mitochondrial protein extracts; assay type: cell-based, human; settings: MM.1S cells; FIG. 12E
Method: Immunoblot analysis was performed using antibodies to cytochrome-c, Smac, Caspase-8, -9, or -3 (Cell Signaling, Beverly, Mass.), tubulin (Sigma, St. Louis, Mo.), PARP, Hsp60, or Bax (BD Bioscience Pharmingen, San Diego, Calif.). Blots were developed by enhanced chemiluminesence (ECL; Amersham, Arlington Heights, Ill.).
Previous studies have established that Bax induces mitochondrial apoptotic pathway. See Wei, M. C., Zong, W. X., Cheng, E. H., Lindsten, T., Panoutsakopoulou, V., Ross, A. J., Roth, K. A., MacGregor, G. R., Thompson, C. B. & Korsmeyer, S. J. (2001) Science 292, 727-30 and Lei, K., Nimnual, A., Zong, W. X., Kennedy, N. J., Flavell, R. A., Thompson, C. […] Thus, whether MM cell apoptosis induced by the compound of formula (II) (X=Cl) correlates with alterations in Bax was evaluated. […] Blots are representatives of three independent experiments.

[7] = test system: Bcl2-transfected MM.1S cells; test: MTT viability of Bcl2-transfected MM.1S cells
Method: Bcl2 confers resistance to conventional therapies in cancer cells, including MM. […] Bcl2 can modestly attenuate Bortezomib-induced apoptosis. Thus, whether ectopic expression of Bcl2 in MM.1S cells affects responsiveness to the compound of formula (II) (X=Cl) was evaluated. MM.1S cells were stably transfected with Bcl2 construct and analyzed for alterations in cell viability using an MTT assay. […] Results are mean±SD of three independent experiments.
During apoptosis Bax neutralizes the antiapoptotic function of Bcl-2, thereby facilitating the cyto-c release and caspase-9 activation. Bcl-2 also confers drug resistance in cancer cells, including MM, and provides partial protection against Bortezomib-induced killing. Therefore, whether ectopic expression of Bcl-2 in MM.1S cells affects the ability of the compound of formula (II) or Bortezomib to trigger cytotoxicity and postmitochondrial apoptotic signaling in MM cells was evaluated.

[8] = test system: MM.1S cells; test: cells; settings: for viable cells: FIG. 12D
Description: MM.1S cells were also transiently transfected using Cell line Nucleofecto kit V, according to the manufacturer's instructions (Amaxa Biosystems, Germany), with vector alone, DN-caspase-8, DN-caspase-9, or DN-FADD and cotransfected with vector containing green fluorescence protein (GFP) alone.
It was next determined whether inhibition of an upstream signaling pathway that leads to caspase-8 activation affects the response to the compound of formula (II) (X=Cl) or Bortezomib. The Fas-associated death domain (FADD) protein is an important part of the deathinducing signaling complexes (DISCs) that assemble upon engagement of TNF receptor family members, such as Fas, resulting in proteolytic processing and autoactivation of pro-caspase-8. Since both the compound of formula (II) (X=Cl) and Bortezomib trigger caspase-8 activation, the role of FADD during this event in MM cells was evaluated using DN-FADD.

In the case of `CC12OC(=O)C1(C(O)C1C=CCCC1)NC(=O)C2CCCl` (centres unmarked) [compound of formula (II) (X=Cl)], the “labeling of β-5 subunit by AdaY(125I)Ahx3L3VS” value ([1]; 30 mins to 6 h, FIG. 3) is reported as “markedly less labeled”, the “labeling of β-2 and β-1 subunits by AdaY(125I)Ahx3L3VS” value ([1]; 6 h, data not shown) is reported as “decreased the labeling of the β-2 subunits (tryptic-activity) and the β-1 subunits (caspase-like activity)” and the “apoptosis by DNA fragmentation assay” value ([2]; 10 nM, 24 h, nine relapsed MM patients, FIG. 5B) is reported as “significant apoptosis”. For the same compound, the increase in apoptosis ([2]; CD138+ cells of two patients, 20 nM, 24 h, FIG. 6) was 10-12 fold, the “IC50 for MM cells” value ([2]; stated in words) was “within the nanomolar concentration” and the “inhibition of chymotrypsin-like, caspase-like and trypsin-like activities of the 20S proteasome” value [3] was “inhibits all three proteasome activities”. The “viability of normal lymphocytes” value ([4]; 72 h, 0-20 nM (compound even at 20 nM; Bortezomib at 6-10 nM), FIG. 13) was “does not significantly decrease the survival of normal lymphocytes”, the “effect on normal lymphocytes at the IC50 of patient MM cells” value ([4]; in words) was “no effect on normal lymphocytes” and the IC50 [5] was 7 to 24 nM. The “Bax levels in mitochondria” value [6] was “little, if any increase in Bax levels in mitochondria”, the “increased survival of Bcl-2 transfectants” value ([7]; Bcl-2- versus vector-transfected, FIG. 14A) was 11% and the viability ([7]; Bcl-2-transfected cells, FIG. 14A) was 50%±2.6. The “less cell death in Bcl2-transfected cells compared to empty vector-transfected MM.1S cells” value ([7]; FIG. 9) was 15±1.1%, the “effect of Bcl-2 overexpression on induced caspase-9 cleavage” value ([7]; FIG. 14B) was “minimally affected” and the “cell viability of Bcl2-transfected MM.1S cells” value ([7]; dose-dependent, FIG. 9) was “significantly decreases cell viability”. For the same compound, the viability ([7]; vector-transfected cells, FIG. 14A) was 39%±1.5, the viable cells ([8]; DN-FADD-transfected MM.1S cells) was 76%±5.1 and the “effect of caspase-8 blockade on triggered cell death” value ([8]; IETD-fmk, FIG. 12A) was “significant decrease in cell death”. For the same compound, the “effect of caspase-9 inhibition on decreased viability” value ([8]; LEHD-FMK, FIG. 12A) was “only moderately blocked”, the IC50 ([8]; MM.1S cells, concentration used for treatment) was 7 nM and the “survival of DN-caspase-8-transfected compared to DN-caspase-9-transfected cells” value ([8]; treated at IC50, FIG. 12B) was “markedly increased survival”. For the same compound, the viable cells ([8]; vector-transfected MM.1S cells) was 42%±2.0 and the “effect of caspase-3 inhibition on induced apoptosis” value ([8]; z-VAD-fmk, FIG. 12A) was “markedly abrogates”.
